Test results published in paper PMC13193874, “Targeting PIP5K ameliorates hepatic cancer by inhibiting PI3K/AKT and the autophagy mechanism and enhancing ROS-mediated apoptosis” (Frontiers in Pharmacology, 2026).

Molecular target: PIP5K1B (Homo sapiens, UniProt O14986)
Test: cell-free kinase assay (Thermo Fisher SelectScreen, ADP detection), 10-point dose response; […] inhibition at […]
Type: biochemical

PIP5K1B, sequence (O14986 whole entry): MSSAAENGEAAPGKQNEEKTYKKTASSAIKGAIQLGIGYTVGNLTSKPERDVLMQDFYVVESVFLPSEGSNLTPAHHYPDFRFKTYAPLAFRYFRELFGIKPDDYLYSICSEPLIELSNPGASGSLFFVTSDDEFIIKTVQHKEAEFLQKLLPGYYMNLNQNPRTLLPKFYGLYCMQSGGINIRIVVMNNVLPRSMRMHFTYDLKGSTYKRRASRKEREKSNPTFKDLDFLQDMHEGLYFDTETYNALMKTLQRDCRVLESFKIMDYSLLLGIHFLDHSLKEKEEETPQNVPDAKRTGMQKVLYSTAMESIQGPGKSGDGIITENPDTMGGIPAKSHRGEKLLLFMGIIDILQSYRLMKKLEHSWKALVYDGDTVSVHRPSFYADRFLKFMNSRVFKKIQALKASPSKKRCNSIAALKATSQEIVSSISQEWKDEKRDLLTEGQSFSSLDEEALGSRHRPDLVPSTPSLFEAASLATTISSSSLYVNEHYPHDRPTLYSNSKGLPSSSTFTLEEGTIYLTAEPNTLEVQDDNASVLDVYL

- IC50: 281 nM
Compound: Fc1ccc(Nc2nc(Nc3ccc(-c4nc5ccccc5[nH]4)cc3)nc(N3CCOCC3)n2)cc1 [15g, N2-[4-(1H-benzimidazol-2-yl)phenyl]-N4-(4-fluorophenyl)-6-(4-morpholinyl)-1,3,5-triazine-2,4-diamine]
